The text below walks through data of patent US7049321B2, “Methods and pharmaceutical compositions for treatment of central and peripheral nervous system disorders and compounds useful therefor” (Israel Institute for Biological Research, priority 2002, dated 2006).

pEC50: −log10 of the molar value. “Also recorded” adds a separate entry of the source. A value given as a limit tells only on which side of the number the result lay.

Data set [1] has as its system Rat pheochromocytoma cells transfected with M1 mAChR. Briefly: Neurite outgrowth response. The class given is cell-based. The note with it: for Emax: Rattus norvegicus, read-out: Maximal response, percent of cells with neurites. Here is the method:
Rat pheochromocytoma cells transfected with M1 mAChR cells were grown as described in Gurwitz et al, (NeuroReport 6, 485,1995). For determination of neurite outgrowth, cells plated in six-well plates were used 3–5 days after-plating. Growth factors were added 1 day after plating and muscarinic agonists were added for the last 24 hrs.
Cells were observed under an inverted microscope. The percent of cells with neurite longer than cell diameter were scored in three random fields of several hundred cells from each well. Results were expressed as a percent of cells with neurites. Treatments were performed in triplicate cells. Both NGF (50 ng/ml) and EGF (100 ng/ml) were added 1 day after plating. Muscarinic agonists were added 24 hours before scoring.

For another data set, the system named is trihexyphenidyl rats. Kind of data set: Passive avoidance in trihexyphenidyl-treated rats. The class given is in vivo, Wistar rats. As to conditions: for Effect on passive avoidance: AF292 0.03, 0.05, 0.1, 0.3, 0.5 mg/kg p.o., AF267B 0.5, 1, 5; for MED: p.o.; for Retention latency: 24 h. An excerpt: Trihexyphenidyl is a selective M1 muscarinic antagonist that crosses the blood brain barrier and induces memory and learning impairments (Bymaster et al. J Pharmacol Exp Ther 267: 16–24, 1993. Roldan et al Neurosci. Lett. 230: 93–96, 1997; Kimura et al Brain Res. 834: 6–12, 1999).
Naive Wistar rats were used in the experiments below. The passive avoidance (PA) task is comprised of training (acquisition) phase and a retention phase. In the training procedure each rat was individually placed in the small illuminated compartment and after 60 sec. of familiarization/adaptation, the door to the large compartment was opened and the latency to enter was measured (Initial Latency). Immediately following entry into the dark compartment, the door was closed and inescapable foot shock (0.6 mA for 3 sec) was delivered through the grid floor. A cutoff point of 180 sec was used for initial latency. […] After the acquisition trial the rat was returned to its home cage. Retention of the passive avoidance task was measured 24 h later, by again placing the rat in the light compartment and after a 60 sec adaptation interval, the door was opened and the latency to re-enter the dark compartment was measured. A cutoff point of 300 sec was used for retention latency.

The subject of data set [2] is Rat pheochromocytoma cells transfected with M1 mAChR. The class given is cell-based. The note with it: for Cell death induced by β-A25-35: β-A25-35 (1 μM), 24 hrs, serum-deprived. The method, then:
Confluent rat pheochromocytoma cells transfected with the M1 mAChR cultures were detached with trypsin, washed and plated in 24-well, 6-well, 60-mm or 100-mm plates that were precoated with rat tail collagen (Sigma, Israel). Several experiments were performed in serum-free medium. For 3-(4,5-dimethylthiazol-2-yl)-2,5-diphenyl-tetrazolium bromide (MTT) assay, cells (1.5×10^4) were plated in 96-well collagen-precoated plates, in serum-free medium, with or without various drugs for 24 hours. For differentiation, cells were grown in the presence of 1% FCS and 1% HS, with addition of 50 ng/ml NGF for 7 days, to cause full differentiation. […] After 7 days, cells were washed and the medium was either replaced to serum-free, or cells were detached and replated in serum-free medium. Cells in serum-free medium were treated either with Aβ peptides that were previously “aged” or with H2O2. Tested compounds were added together with the insults for the indicated time, unless otherwise stated.
Cells were plated in 96-well plates in 100 μl medium. After exposure to various treatments, 10 μl of 5 mg/ml MTT [3-(4,5-dimethylthiazol-2-yl)-2,5-diphenyl-tetrazolium bromide; Sigma, Israel] solution in phosphate-buffered saline (PBS) was added to each well. Plates were incubated for 2 hrs at 37° C. followed by hydrocholoric acid-isopropanol addition (100 μl of 0.04N HCl/isopropanol). Plates were read using ELISA reader at a wavelength of 570 nm.
The MTT assay measures primary early changes within the cells, reflecting the integrity of the electron transport chain and provides a readout of cellular redox activity. This test is a specific, early indicator of the mechanism of β-amyloid-mediated cell death and can be used to detect rapid inhibitory response.

Data set [3] is described as follows: Pharmacokinetic study in rats. The class given is in vivo. As to conditions: rat; for biovailability in rats: in vivo; for AUC(0-inf) / Cmax / MRT / Tmax / half-life: plasma, Rats. An excerpt: The results of the PK profile of AF292 in rats and Beagle dogs (overnight fasting; drug administered in water solution; gavage) are listed in Table 1.
In data set [4] the test system is cells transfected with M1 mAChR. Kind of data set: Protection from H2O2-induced toxicity. Format: cell-based, rat.
The target of another data set is T1, M1 mAChR (Rattus norvegicus, UniProt P08482).
T1 construct: expressed in transfected cells; elsewhere rat pheochromocytoma cells
T1 sequence (P08482 1-460): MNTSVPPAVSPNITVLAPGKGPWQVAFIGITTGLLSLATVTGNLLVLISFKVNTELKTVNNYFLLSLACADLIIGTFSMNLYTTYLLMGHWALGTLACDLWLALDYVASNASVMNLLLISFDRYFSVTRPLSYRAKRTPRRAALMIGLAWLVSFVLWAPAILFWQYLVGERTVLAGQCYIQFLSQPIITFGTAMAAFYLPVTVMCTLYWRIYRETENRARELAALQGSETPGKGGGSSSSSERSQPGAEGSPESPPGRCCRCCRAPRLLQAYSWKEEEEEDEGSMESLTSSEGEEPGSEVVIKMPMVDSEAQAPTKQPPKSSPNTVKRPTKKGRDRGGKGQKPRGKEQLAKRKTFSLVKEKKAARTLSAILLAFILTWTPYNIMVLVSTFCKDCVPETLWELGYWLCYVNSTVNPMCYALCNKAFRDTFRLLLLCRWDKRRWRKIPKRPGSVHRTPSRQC
Kind of data set: α-APPs secretion in cell cultures stably transfected with the M1 mAChR. The class given is cell-based. As to conditions: for Emax: read-out: α-APPs secretion, % of maximal response of carbachol. Here is the method:
Cells were plated in 6 well culture plates and used at the age of 3–5 days after plating. […] Cells exposed to medium alone are referred as controls.
Cell supernatants were collected into Eppendorff tubes containing a cocktail of protease inhibitors (5 units/ml aprotinin, […], […] and 10^−4M Phenylmethylsulfonylfluoride (PMSF, a protease inhibitor); Sigma, USA). The collected media were concentrated with Centricon tubes (Amicon, Beverly, Mass., USA) and kept frozen for α-APPs secretion determination. Equal amounts of protein (50–100 μg) were loaded and separated on 10% sodium dodecyl sulfate-polyacrylamide gel electrophoresis (SDS-PAGE). Followed by western blotting onto nitrocellulose membrane, blocked by fat-free milk, and probed for 24 hours at 4° C., with anti-Alzheimer's precursor protein, A4 monoclonal antibody 22C11 (0.25 μg/ml; Boehringer Mannheim, Germany). The nitrocellulose membranes were washed and incubated for 2 hours at room temperature with peroxidase-linked goat anti-mouse IgG antibodies (Jackson Immunoresearch, USA), followed by extensive washout and staining with enhanced chemiluminescence detection system (Amersham). Quantitative evaluation of the immunoreactive bands, on the exposed films, was performed by video-imaging densitometry (Gel-aid software; Galai Co., Israel). APPs levels were expressed as x-fold increase over basal levels.

The mark [5] stands for this setting: oral, extrapolated for 10 mg/kg.

`CC[C@@H]1SC2(CCNCC2)NC1=O` [AF292, (S)-2-Ethyl-1-thia-4,8-diaza-spiro[4.5]decan-3-one]: the Neurotrophic effect result in data set [1] (blocked by atropine) is “neurotrophic”. Also, in the data set with trihexyphenidyl rats, the “Effect on passive avoidance” value is “positive effects” and the MED was below 0.03 mg/kg. Moreover, in the data set with trihexyphenidyl rats (rat, in vivo), the Duration of action result is “LONG DURATION OF ACTION” and the “Potency among the tested agonists” value was “most potent compound among the tested agonists”. In data set [2], the “MTT assay against Aβ 25–35 & H2O2 in cell cultures transfected with rat M1 mAChR” value is listed as “Equipotent with AF267B & CCh at 100 μM; Even” and the “Cell death induced by β-A25-35” value was “significantly attenuated”. Moreover, the biovailability in rats in data set [3] came out at 49%. For the same molecule, in data set [3] (po, 10 mg/kg), the AUC(0-inf) was 2150 ng·h/mL, the peak level (Cmax) was 1910 ng/mL, the MRT stood at 90 min and the Tmax was 30 min. In data set [3] (po, 10 mg/kg), this molecule showed a half-life of 59.4 min. In addition, the “Protection from H2O2-induced toxicity” value in data set [4] is on record as “protect the cells”. On M1 mAChR, the pEC50 was 5.52; the “α-APPs secretion, comparison in words” value is reported as “as effective as AF267B; also recorded: Equipotent with AF267B &”; the Emax turned out to be 100%.
For the molecule `CC1=NCC2(CCN(C)CC2)S1` [AF150(S), 2,8-Dimethyl-1-thia-3,8-diaza-spiro[4.5]dec-2-ene], the Emax was 30% in data set [1] and 50% at M1 mAChR. In addition, in the data set with trihexyphenidyl rats (5 mg/kg p.o.), the Retention latency turned out to be 222 ± 25.6 s. Moreover, the “Cell death induced by β-A25-35” value in data set [2] is listed as “significantly attenuated”. In data set [3], the biovailability in rats was 31%. The “Protection from H2O2-induced toxicity” value in data set [4] is reported as “protect the cells”.
Consider `CC[C@@H]1SC2(CCN(C)CC2)NC1=O` [AF267B, (S)-2-ethyl-8-methyl-1-thia-4,8-diaza-spiro[4.5]decan-3-one], for which, in data set [1], the Emax was found to be 60%. Further, in the data set on trihexyphenidyl rats (0.5 mg/kg p.o.), the Retention latency is 181.1 ± 35.4 s. Besides, in the data set on trihexyphenidyl rats (1 mg/kg p.o.), the Retention latency stood at 290.1 ± 8.5 s. In the data set on trihexyphenidyl rats, the “Effect on passive avoidance” value is listed as 0.5, 1, 5 positive effects and the MED entry is given as “MED 0.1–0.5 mg/kg, p.o”. Also, in data set [2], the “MTT assay against Aβ 25–35 & H2O2 in cell cultures transfected with rat M1 mAChR” value is 100% and the “Cell death induced by β-A25-35” value is given as “significantly attenuated”. In addition, in data set [3] (setting [5]), the AUC(0-inf) is 1550 ng·h/mL and the Cmax was 1700 ng/mL. In data set [3] (po, 5 mg/kg), the AUC(0-inf) was 773 ng·h/mL, the peak level (Cmax) was 852 ng/mL, the MRT was determined as 60 min and the Tmax worked out at 15 min. Moreover, the half-life in data set [3] (po, 5 mg/kg) was 38.4 min. Besides, in data set [4], the “Protection from H2O2-induced toxicity” value is on record as “protect the cells”. Further, on M1 mAChR, the pEC50 was 5.52; the “α-APPs secretion, % of maximal response of carbachol” value is on record as “equal to maximal response of carbachol”; the Emax was 100%. The “α-APPs secretion, fold increase over control” value at M1 mAChR (10^−4M, maximal increase) is reported as “about 6 fold”.

The term AUC(0-inf) denotes total exposure, with the tail of the curve extrapolated. One may read the Cmax as the maximum level reached in the sampled fluid or tissue. Usually MRT stands for the average time that molecules of a dose stay in the body. By Tmax is commonly meant the time from dosing to the highest level. One may read the half-life as the time needed for the level to fall by half in the phase considered. The term pEC50 denotes the EC50 on a negative log10 scale, so that one unit is a factor of ten. Read a high pEC50 as a low EC50.
